Tested on: A-549 cells
Experiment: Apoptosis assessment, Annexin V-FITC/propidium iodide double staining
Type: cell-based, human
Procedure: Initially, we investigated morphological cellular changes. […] PARP, a hallmark of apoptosis, was also activated by 9a.
Apoptosis was detected by Annexin V-FITC/propidium iodide double staining kit (BD Biosciences). A-549 cells were treated with 9a for 24 h or 48 h. Cells were harvested by trypsinization and washed with ice-cold PBS. Cells were labeled with annexin V-FITC and propidium iodide for 15 min at room temperature in the dark. Labeled cells were analyzed by FACSCalibur flow cytometer (Becton Dickinson).

SMILES: CC[C@@]1(OC(=O)CNC(Cc2ccc(OC)cc2)=NS(=O)(=O)c2ccc(C)cc2)C(=O)OCc2c1cc1n(c2=O)Cc2cc3ccccc3nc2-1 [Compound 9a]
- annexin V positive cell population (A-549, 24 h, vehicle […]): 3.7%
- annexin V positive cell population (A-549, 48 h, vehicle 2.0%): 34.1%

Reference: patent US9718835B2 (China Medical University Hospital, priority 2013, dated 2017)
